Test [1] concerns rat cardiomyocyte. Briefly: Rat cardiomyocyte contractility model. Particulars: read-out: EC50cardio, authors' unpublished data. The format is cell-based.
Another test concerns the target human β2-AR (Homo sapiens, UniProt P07550). The following applies: plotted from previously reported ΔH° and TΔS°; cited from earlier work.
For another test, the system named is β2-AR. The following applies: cardiomyocytes; cited from earlier work.
The test system of test [2] is rat cardiomyocyte. The following applies: read-out: EC50cardio; rat cardiomyocyte contractility; cited from earlier work.

Read-outs that look alike come from different tables or passages of the source.

human β2-AR, sequence (P07550 whole entry): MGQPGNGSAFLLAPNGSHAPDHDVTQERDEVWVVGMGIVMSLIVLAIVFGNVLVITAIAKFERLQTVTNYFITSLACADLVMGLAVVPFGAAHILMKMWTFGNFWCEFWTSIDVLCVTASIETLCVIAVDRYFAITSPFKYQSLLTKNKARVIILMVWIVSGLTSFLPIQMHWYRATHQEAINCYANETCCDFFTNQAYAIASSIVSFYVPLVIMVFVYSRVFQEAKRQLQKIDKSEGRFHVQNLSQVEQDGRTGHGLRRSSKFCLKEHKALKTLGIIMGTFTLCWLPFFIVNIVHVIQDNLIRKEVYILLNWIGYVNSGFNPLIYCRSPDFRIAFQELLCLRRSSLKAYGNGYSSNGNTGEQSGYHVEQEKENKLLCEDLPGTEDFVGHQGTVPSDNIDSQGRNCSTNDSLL

For the compound `CC(Cc1ccc(O)cc1)NCC(O)c1cc(O)cc(O)c1` [(S,S')-fenoterol], the EC50 in the test with rat cardiomyocyte [1] was found to be 55 µM.

For `CC(Cc1ccc(O)cc1)NCC(O)c1cc(O)cc(O)c1` (racemic) [rac-fenoterol], at human β2-AR, the “Quadrant in the TΔS° and ΔH° plot” value was “enthalpy-entropy driven process”.

Turning to `CC(Cc1ccc(O)cc1)NCC(O)c1cc(O)cc(O)c1` [(R,R')-fenoterol], in the test on β2-AR, the “β2-AR coupling preference for G-proteins” value is “preferentially activates Gs signaling”. Moreover, in the test on rat cardiomyocyte [2], the EC50 is 0.073 µM.

On to `C[C@H](Cc1ccc(O)cc1)NC[C@@H](O)c1cc(O)cc(O)c1` [(S,R')-fenoterol], for which the “β2-AR coupling preference for G-proteins” value in the test with β2-AR is “activates both Gs and Gi proteins”. Besides, the EC50 in the test with rat cardiomyocyte [2] is 2.34 µM.

With `C[C@@H](Cc1ccc(O)cc1)NC[C@H](O)c1cc(O)cc(O)c1` [(R,S')-fenoterol], in the test with rat cardiomyocyte [2], the EC50 is 0.575 µM.
